A short description of this data set: in vitro. The format is in vitro ADME. As to conditions: human. The method in brief:
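Permeability measured in both directions across 19-day Caco-2 layers with TEER above 600 […], incubated at 37° C without shaking; donor and receiver sampled at 10 and 90 min for LC/MS/MS. Derived values: Papp (cm/s), efflux ratio, recovery.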

The mark [1] stands for this setting: Caco-2 monolayer, apical to basolateral, 90-minute incubation, read-out: Papp, A-B.
The mark [2] stands for this setting: Caco-2 monolayer, basolateral to apical, 90-minute incubation, read-out: Papp, B-A.
[3] abbreviates: Caco-2 monolayer, ER>2 indicates potential efflux transporter substrate, read-out: ER (efflux ratio).

Where two headings read alike, the source gives them in different places.

The Papp A→B is how fast a substance crosses the layer from the apical side. Broadly, the Papp B→A is the apparent permeability from the basolateral to the apical side of a cell layer.

In the case of `N#C[C@@]1(c2ccc3c(N)ncnn23)O[C@H](COC(=O)CC2CCC(C(F)(F)F)CC2)[C@@H](OC(=O)CC2CCC(C(F)(F)F)CC2)[C@H]1O` (stereo partly drawn) [Compound 271, (2R,3S,4R,5R)-5-(4-aminopyrrolo[2,1-f][1,2,4]triazin-7-yl)-5-cyano-4-hydroxy-2-((2-(4-(trifluoromethyl)cyclohexyl)acetoxy)methyl)tetrahydrofuran-3-yl 2-(4-(trifluoromethyl)cyclohexyl)acetate], for the setting “Caco-2”, the Papp A→B at 90 min is 0.06 ×10⁻⁶ cm/s, the Papp B→A at 90 min came out at 0.52 ×10⁻⁶ cm/s and the efflux ratio at 90 min was 8.7.

In the case of `CC1(C)CCC(CC(=O)OC[C@H]2O[C@@](C#N)(c3ccc4c(N)ncnn34)[C@H](O)[C@@H]2O)CC1` [Compound 272, ((2R,3S,4R,5R)-5-(4-aminopyrrolo[2,1-f][1,2,4]triazin-7-yl)-5-cyano-3,4-dihydroxytetrahydrofuran-2-yl)methyl 2-(4,4-dimethylcyclohexyl)acetate], for the setting “Caco-2”, the Papp A→B at 90 min is 1.2 ×10⁻⁶ cm/s, the Papp B→A at 90 min turned out to be 0.64 ×10⁻⁶ cm/s and the efflux ratio at 90 min is 0.52.

Regarding `CC1(CC(=O)OC[C@H]2O[C@@](C#N)(c3ccc4c(N)ncnn34)[C@H](O)[C@@H]2O)CCCCC1` [Compound 273, ((2R,3S,4R,5R)-5-(4-aminopyrrolo[2,1-f][1,2,4]triazin-7-yl)-5-cyano-3,4-dihydroxytetrahydrofuran-2-yl)methyl 2-(1-methylcyclohexyl)acetate], where the note is “Caco-2”, the Papp A→B at 90 min is 3.7 ×10⁻⁶ cm/s, the Papp B→A at 90 min stood at 3.2 ×10⁻⁶ cm/s and the efflux ratio at 90 min was determined as 0.85.

Regarding `N#C[C@@]1(c2ccc3c(N)ncnn23)O[C@H](COC(=O)CC2(c3ccccc3)CCOCC2)[C@@H](O)[C@H]1O` [Compound 274, ((2R,3S,4R,5R)-5-(4-aminopyrrolo[2,1-f][1,2,4]triazin-7-yl)-5-cyano-3,4-dihydroxytetrahydrofuran-2-yl)methyl 2-(4-phenyltetrahydro-2H-pyran-4-yl)acetate], where the note is “Caco-2”, the Papp A→B at 90 min is 0.85 ×10⁻⁶ cm/s, the Papp B→A at 90 min stood at 12 ×10⁻⁶ cm/s and the efflux ratio at 90 min came out at 14.

On to `C[C@@H](C(=O)OC[C@H]1O[C@@](C#N)(c2ccc3c(N)ncnn23)[C@H](O)[C@@H]1O)C1CCCCC1` [Compound 275, ((2R,3S,4R,5R)-5-(4-aminopyrrolo[2,1-f][1,2,4]triazin-7-yl)-5-cyano-3,4-dihydroxytetrahydrofuran-2-yl)methyl (R)-2-cyclohexylpropanoate], for which, where the note is “Caco-2”, the Papp A→B at 90 min was found to be 11 ×10⁻⁶ cm/s, the Papp B→A at 90 min was determined as 16 ×10⁻⁶ cm/s and the efflux ratio at 90 min turned out to be 1.6.

Turning to `CCCCC(=O)Nc1ncnn2c([C@]3(C#N)O[C@H](COC(=O)C(C)C)[C@@H](O)[C@H]3O)ccc12` [Compound 276, ((2R,3S,4R,5R)-5-cyano-3,4-dihydroxy-5-(4-pentanamidopyrrolo[2,1-f][1,2,4]triazin-7-yl)tetrahydrofuran-2-yl)methyl isobutyrate], for the setting “Caco-2”, the Papp A→B at 90 min was determined as 0.36 ×10⁻⁶ cm/s, the Papp B→A at 90 min amounted to 2.9 ×10⁻⁶ cm/s and the efflux ratio at 90 min came out at 8.

Turning to `CCCCC(=O)Nc1ncnn2c([C@]3(C#N)O[C@H](COC(=O)Cc4ccccc4)[C@@H](O)[C@H]3O)ccc12` [Compound 277, ((2R,3S,4R,5R)-5-cyano-3,4-dihydroxy-5-(4-pentanamidopyrrolo[2,1-f][1,2,4]triazin-7-yl)tetrahydrofuran-2-yl)methyl 2-phenylacetate], the Papp A→B at 90 min under setting [1] is 0.47 ×10⁻⁶ cm/s. Further, under setting [2], the Papp B→A at 90 min came out at 5.4 ×10⁻⁶ cm/s. Further, under setting [3], the efflux ratio at 90 min is 12.

For the compound `C[C@H]1CC[C@H](CC(=O)OC[C@H]2O[C@@](C#N)(c3ccc4c(N)ncnn34)[C@H](O)[C@@H]2O)CC1` [Compound 278, ((2R,3S,4R,5R)-5-(4-aminopyrrolo[2,1-f][1,2,4]triazin-7-yl)-5-cyano-3,4-dihydroxytetrahydrofuran-2-yl)methyl 2-((1r,4R)-4-methylcyclohexyl)acetate], under “Caco-2”, the Papp A→B at 90 min was found to be 2.2 ×10⁻⁶ cm/s, the Papp B→A at 90 min turned out to be 4.9 ×10⁻⁶ cm/s and the efflux ratio at 90 min was determined as 2.2.

As to `N#C[C@@]1(c2ccc3c(N)ncnn23)O[C@H](COC(=O)CC2CCC3(CCCC3)CC2)[C@@H](O)[C@H]1O` [Compound 279, ((2R,3S,4R,5R)-5-(4-aminopyrrolo[2,1-f][1,2,4]triazin-7-yl)-5-cyano-3,4-dihydroxytetrahydrofuran-2-yl)methyl 2-(spiro[4.5]decan-8-yl)acetate], where the note is “Caco-2”, the Papp A→B at 90 min is 1.4 ×10⁻⁶ cm/s, the Papp B→A at 90 min came to 0.9 ×10⁻⁶ cm/s and the efflux ratio at 90 min is 0.64.

Take `N#C[C@@]1(c2ccc3c(N)ncnn23)O[C@H](COC(=O)CC2CCS(=O)(=O)CC2)[C@@H](O)[C@H]1O` [Compound 280, ((2R,3S,4R,5R)-5-(4-aminopyrrolo[2,1-f][1,2,4]triazin-7-yl)-5-cyano-3,4-dihydroxytetrahydrofuran-2-yl)methyl 2-(1,1-dioxidotetrahydro-2H-thiopyran-4-yl)acetate]: for the setting “Caco-2”, the Papp A→B at 90 min was determined as 0.38 ×10⁻⁶ cm/s, the Papp B→A at 90 min was found to be 0.91 ×10⁻⁶ cm/s and the efflux ratio at 90 min is 2.4.

In the case of `C[C@H](C(=O)OC[C@H]1O[C@@](C#N)(c2ccc3c(N)ncnn23)[C@H](O)[C@@H]1O)C1CCCCC1` [Compound 281, ((2R,3S,4R,5R)-5-(4-aminopyrrolo[2,1-f][1,2,4]triazin-7-yl)-5-cyano-3,4-dihydroxytetrahydrofuran-2-yl)methyl (S)-2-cyclohexylpropanoate], for the setting “Caco-2”, the Papp A→B at 90 min came out at 13 ×10⁻⁶ cm/s, the apparent permeability from basolateral to apical (Papp B→A) at 90 min was found to be 29 ×10⁻⁶ cm/s and the efflux ratio at 90 min is 2.3.

Turning to `CCCCC(=O)Nc1ncnn2c([C@]3(C#N)O[C@H](COC(=O)CC)[C@@H](O)[C@H]3O)ccc12` [Compound 282, ((2R,3S,4R,5R)-5-cyano-3,4-dihydroxy-5-(4-pentanamidopyrrolo[2,1-f][1,2,4]triazin-7-yl)tetrahydrofuran-2-yl)methyl propionate], under setting [1], the Papp A→B at 90 min is 0.72 ×10⁻⁶ cm/s. The apparent permeability from basolateral to apical (Papp B→A) at 90 min under setting [2] worked out at 4.1 ×10⁻⁶ cm/s. In addition, the efflux ratio at 90 min under setting [3] came out at 5.6.

`CCCCC(=O)Nc1ncnn2c([C@]3(C#N)O[C@H](COC(=O)CC(C)C)[C@@H](O)[C@H]3O)ccc12` [Compound 283, ((2R,3S,4R,5R)-5-cyano-3,4-dihydroxy-5-(4-pentanamidopyrrolo[2,1-f][1,2,4]triazin-7-yl)tetrahydrofuran-2-yl)methyl 3-methylbutanoate]: for the setting “Caco-2”, the Papp A→B at 90 min was determined as 3 ×10⁻⁶ cm/s, the Papp B→A at 90 min was determined as 1 ×10⁻⁶ cm/s and the efflux ratio at 90 min worked out at 0.34.

Turning to `CCCCC(=O)Nc1ncnn2c([C@]3(C#N)O[C@H](COC(=O)CC4CCCCC4)[C@@H](O)[C@H]3O)ccc12` [Compound 284, ((2R,3S,4R,5R)-5-cyano-3,4-dihydroxy-5-(4-pentanamidopyrrolo[2,1-f][1,2,4]triazin-7-yl)tetrahydrofuran-2-yl)methyl 2-cyclohexylacetate], under “Caco-2”, the Papp A→B at 90 min came out at 1.7 ×10⁻⁶ cm/s, the Papp B→A at 90 min is 0.95 ×10⁻⁶ cm/s and the efflux ratio at 90 min was 0.56.

Turning to `N#C[C@@]1(c2ccc3c(NC(=O)c4ccccc4)ncnn23)O[C@H](COC(=O)CC2CCCCC2)[C@@H](O)[C@H]1O` [Compound 285, ((2R,3S,4R,5R)-5-(4-benzamidopyrrolo[2,1-f][1,2,4]triazin-7-yl)-5-cyano-3,4-dihydroxytetrahydrofuran-2-yl)methyl 2-cyclohexylacetate], where the note is “Caco-2”, the Papp A→B at 90 min amounted to 1.1 ×10⁻⁶ cm/s, the Papp B→A at 90 min stood at 0.9 ×10⁻⁶ cm/s and the efflux ratio at 90 min amounted to 0.83.

As for `N#C[C@@]1(c2ccc3c(N)ncnn23)O[C@H](COC(=O)CC2(N)CCCCC2)[C@@H](O)[C@H]1O` [Compound 286, ((2R,3S,4R,5R)-5-(4-aminopyrrolo[2,1-f][1,2,4]triazin-7-yl)-5-cyano-3,4-dihydroxytetrahydrofuran-2-yl)methyl 2-(1-aminocyclohexyl)acetate], where the note is “Caco-2”, the Papp A→B at 90 min was determined as 0.01 ×10⁻⁶ cm/s, the Papp B→A at 90 min was 0.4 ×10⁻⁶ cm/s and the efflux ratio at 90 min worked out at 67.

Turning to `COC1(CC(=O)OC[C@H]2O[C@@](C#N)(c3ccc4c(N)ncnn34)[C@H](O)[C@@H]2O)CCCCC1` [Compound 287, ((2R,3S,4R,5R)-5-(4-aminopyrrolo[2,1-f][1,2,4]triazin-7-yl)-5-cyano-3,4-dihydroxytetrahydrofuran-2-yl)methyl 2-(1-methoxycyclohexyl)acetate], where the note is “Caco-2”, the Papp A→B at 90 min stood at 5.2 ×10⁻⁶ cm/s, the Papp B→A at 90 min is 13 ×10⁻⁶ cm/s and the efflux ratio at 90 min is 2.4.

For the compound `CCCCC(=O)Nc1ncnn2c([C@]3(C#N)O[C@H](COC(C)=O)[C@@H](O)[C@H]3O)ccc12` [Compound 288, ((2R,3S,4R,5R)-5-cyano-3,4-dihydroxy-5-(4-pentanamidopyrrolo[2,1-f][1,2,4]triazin-7-yl)tetrahydrofuran-2-yl)methyl acetate], where the note is “Caco-2”, the Papp A→B at 90 min came to 0.91 ×10⁻⁶ cm/s, the Papp B→A at 90 min was 6.9 ×10⁻⁶ cm/s and the efflux ratio at 90 min stood at 7.7.

Regarding `N#C[C@@]1(c2ccc3c(N)ncnn23)O[C@H](COC(=O)C2(c3ccccc3)CC2)[C@@H](O)[C@H]1O` [Compound 289, ((2R,3S,4R,5R)-5-(4-aminopyrrolo[2,1-f][1,2,4]triazin-7-yl)-5-cyano-3,4-dihydroxytetrahydrofuran-2-yl)methyl 1-phenylcyclopropane-1-carboxylate], for the setting “Caco-2”, the Papp A→B at 90 min stood at 6.4 ×10⁻⁶ cm/s, the Papp B→A at 90 min was determined as 25 ×10⁻⁶ cm/s and the efflux ratio at 90 min amounted to 3.8.

Consider `CN(C(=O)CC1CCCCC1)c1nc(N)nc2c1ncn2[C@@H]1O[C@H](COC(=O)CC2CCCCC2)[C@@H](O)[C@@]1(C)F` [Compound 291, ((2R,3R,4R,5R)-5-(2-amino-6-(2-cyclohexyl-N-methylacetamido)-9H-purin-9-yl)-4-fluoro-3-hydroxy-4-methyltetrahydrofuran-2-yl)methyl 2-cyclohexylacetate], for which, under “Caco-2”, the apparent permeability from apical to basolateral (Papp A→B) at 90 min was found to be 11 ×10⁻⁶ cm/s, the Papp B→A at 90 min was found to be 17 ×10⁻⁶ cm/s and the efflux ratio at 90 min came to 1.6.

These data come from patent US12102648B2, “Orally-bioavailable nucleoside analogs” (priority 2021, dated 2024).
